Measurements published in patent publication US10239843B2 (CANCER RESEARCH TECHNOLOGY LIMITED, priority 2014, dated 2019).
Read-outs that look alike come from different tables or passages of the source.

Tests used:
PARG in HeLa cell line = test: PARG cell assay (PAR chain immunofluorescence after MMS); format: cell-based; conditions: HeLa cells, MMS 50 μg/mL, read-out: PARG Cell IC50 Geomean
Description: This method is based on the detection of endogenous levels of poly (ADP) ribose chains present in the nucleus of HeLa cell line using indirect immunofluorescence. MMS stimulation increases PAR chains for up to 25 mins. After that point, PARG is active and breaks down the PAR chains, until by one hour after stimulation no PAR chains are detectable. Inhibition of PARG maintains PAR chains.
Briefly, following compound treatment and treatment with the DNA damaging agent methylmethanesulfonate (MMS), the cell monolayer is fixed, then permeabilised and incubated with a mouse monoclonal antibody raised against multimers of poly(ADP) ribose.
At the end of the 1 h dosing period, MMS was added to duplicates at a final concentration of 50 μg/mL, for a further hour.
Media was tipped off and the cells fixed with 50 μL ice-cold 95% MetOH/PBS for 15 mins at −20° C. Following a PBS wash, 50 μL PBS/0.1% Triton was added to the cells for 20 mins. Following another PBS wash, anti-PAR antibody (Calbiochem AM80) was diluted 1:4000 in a buffer (PBS+0.5% FBS+0.05% Tween20) and added to the cells and incubated overnight at 4° C.
Cells were washed three times with PBS and the plate sealed with a light-proof seal.

Human Full Length PARG = Human Full Length PARG (Homo sapiens (Human), UniProt Q86W56); test: PARG enzyme assay (TR-FRET); format: biochemical; conditions: read-out: PARG Biochem IC50 Geomean
Human Full Length PARG, sequence (Q86W56 whole entry): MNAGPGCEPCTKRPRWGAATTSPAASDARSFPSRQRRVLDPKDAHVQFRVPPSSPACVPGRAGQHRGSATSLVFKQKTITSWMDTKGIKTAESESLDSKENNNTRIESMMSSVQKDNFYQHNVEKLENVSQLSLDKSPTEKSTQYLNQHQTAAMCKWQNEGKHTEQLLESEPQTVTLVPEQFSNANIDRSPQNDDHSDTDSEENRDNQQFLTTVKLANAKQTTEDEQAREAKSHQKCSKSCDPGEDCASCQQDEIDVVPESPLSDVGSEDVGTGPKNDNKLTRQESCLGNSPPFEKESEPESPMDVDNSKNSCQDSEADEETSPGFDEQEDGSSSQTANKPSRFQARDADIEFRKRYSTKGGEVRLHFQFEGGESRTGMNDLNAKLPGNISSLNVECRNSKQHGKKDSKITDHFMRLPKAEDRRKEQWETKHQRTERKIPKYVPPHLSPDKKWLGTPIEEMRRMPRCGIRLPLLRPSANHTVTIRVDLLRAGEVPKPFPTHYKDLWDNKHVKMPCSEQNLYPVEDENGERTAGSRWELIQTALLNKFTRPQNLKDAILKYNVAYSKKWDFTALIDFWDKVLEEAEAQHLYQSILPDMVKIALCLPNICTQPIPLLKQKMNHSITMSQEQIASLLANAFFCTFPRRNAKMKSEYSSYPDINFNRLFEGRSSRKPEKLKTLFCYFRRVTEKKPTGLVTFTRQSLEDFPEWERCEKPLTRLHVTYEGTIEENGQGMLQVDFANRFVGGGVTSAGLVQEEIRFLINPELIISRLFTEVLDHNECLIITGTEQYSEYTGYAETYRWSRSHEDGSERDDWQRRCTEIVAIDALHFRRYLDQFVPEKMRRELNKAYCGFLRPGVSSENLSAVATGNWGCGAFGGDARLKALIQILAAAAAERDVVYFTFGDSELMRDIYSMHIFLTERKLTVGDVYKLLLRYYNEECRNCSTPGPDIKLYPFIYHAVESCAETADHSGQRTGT

Cc1cc(Cn2c(=O)c3cc(S(=O)(=O)NC4(C)CC4)ccc3n(Cc3noc(C)n3)c2=O)on1 [Example 243]
IC50 (PARG in HeLa cell line; Homo sapiens): 221 nM
IC50 (Human Full Length PARG): 312 nM

Cc1cc(Cn2c(=O)c3cc(S(=O)(=O)NC4(C)CC4)ccc3n(CCN(C)C)c2=O)on1 [Example 246]
IC50 (PARG in HeLa cell line; Homo sapiens): 431 nM
IC50 (Human Full Length PARG): 469 nM

Cc1cc(Cn2c(=O)c3cc(S(=O)(=O)NC4(C)CC4)ccc3n(CCCN(C)C)c2=O)on1 [Example 247]
IC50 (PARG in HeLa cell line; Homo sapiens): 310 nM
IC50 (Human Full Length PARG): 404 nM

Cc1cc(Cn2c(=O)c3cc(S(=O)(=O)NC4(C)CC4)ccc3n(CC3CCCN3C)c2=O)on1 (centres unmarked) [Example 249]
IC50 (PARG in HeLa cell line; Homo sapiens): 315 nM
IC50 (Human Full Length PARG): 402 nM

CNCCCn1c(=O)n(Cc2cc(C)no2)c(=O)c2cc(S(=O)(=O)NC3(C)CC3)ccc21 [Example 250]
IC50 (PARG in HeLa cell line; Homo sapiens): 328 nM
IC50 (Human Full Length PARG): 323 nM

COCCCn1c(=O)n(Cc2cc(C)no2)c(=O)c2cc(S(=O)(=O)NC3(C)CC3)ccc21 [Example 251]
IC50 (PARG in HeLa cell line): 178 nM
IC50 (Human Full Length PARG): 392 nM

Cc1cc(Cn2c(=O)c3cc(S(=O)(=O)NC4(C)CC4)ccc3n(Cc3nc(C)no3)c2=O)on1 [Example 252]
IC50 (PARG in HeLa cell line; Homo sapiens): 297 nM
IC50 (Human Full Length PARG): 391 nM

Cc1cc(Cn2nc(NCCN(C)C)c3ccc(S(=O)(=O)NC4(C)CC4)cc3c2=O)on1 [Example 253]
IC50 (PARG in HeLa cell line; Homo sapiens): 2020 nM
IC50 (Human Full Length PARG): 376 nM

Cn1cc(Cn2c(=O)c3cc(S(=O)(=O)NC4(C)CC4)ccc3n(CC3CCCCO3)c2=O)cn1 (centres unmarked) [Example 257]
IC50 (PARG in HeLa cell line; Homo sapiens): 98 nM
IC50 (Human Full Length PARG): 103 nM

Cn1cc(Cn2c(=O)c3cc(S(=O)(=O)NC4(C)CC4)ccc3n(CC3CCCO3)c2=O)cn1 (centres unmarked) [Example 258]
IC50 (PARG in HeLa cell line; Homo sapiens): 131 nM
IC50 (Human Full Length PARG): 169 nM

Cn1cc(Cn2c(=O)c3cc(S(=O)(=O)NC4(C)CC4)ccc3n(CC3CCOC3)c2=O)cn1 (centres unmarked) [Example 259]
IC50 (PARG in HeLa cell line; Homo sapiens): 108 nM
IC50 (Human Full Length PARG): 108 nM

Cn1cc(Cn2c(=O)c3cc(S(=O)(=O)NC4(C)CC4)ccc3n(CCCOC(F)(F)F)c2=O)cn1 [Example 264]
IC50 (PARG in HeLa cell line; Homo sapiens): 187 nM
IC50 (Human Full Length PARG): 256 nM

CN(C)C(=O)Cn1c(=O)n(Cc2cnn(C)c2)c(=O)c2cc(S(=O)(=O)NC3(C)CC3)ccc21 [Example 265]
IC50 (PARG in HeLa cell line; Homo sapiens): 6480 nM
IC50 (Human Full Length PARG): 418 nM

Cc1cc(Cn2c(=O)c3cc(S(=O)(=O)NC4(C)CC4)ccc3n(CC3CCCCO3)c2=O)on1 (centres unmarked) [Example 266]
IC50 (PARG in HeLa cell line): 214 nM
IC50 (Human Full Length PARG): 296 nM

Cc1cc(Cn2c(=O)c3cc(S(=O)(=O)NC4(C)CC4)ccc3n(CC3CCCO3)c2=O)on1 (centres unmarked) [Example 267]
IC50 (PARG in HeLa cell line): 248 nM
IC50 (Human Full Length PARG): 234 nM

Cc1cc(Cn2c(=O)c3cc(S(=O)(=O)NC4(C)CC4)ccc3n(CC3CCOC3)c2=O)on1 (centres unmarked) [Example 268]
IC50 (PARG in HeLa cell line; Homo sapiens): 217 nM
IC50 (Human Full Length PARG): 111 nM

Cn1cc(Cn2c(=O)c3cc(S(=O)(=O)NC4(C)CC4)ccc3n(CC3CCOCC3)c2=O)cn1 [Example 269]
IC50 (PARG in HeLa cell line; Homo sapiens): 98 nM
IC50 (Human Full Length PARG): 57 nM

COCCn1c(=O)n(Cc2cnn(C)c2)c(=O)c2cc(S(=O)(=O)NC3(C)CC3)ccc21 [Example 270]
IC50 (PARG in HeLa cell line; Homo sapiens): 102 nM
IC50 (Human Full Length PARG): 128 nM

Cn1cc(Cn2c(=O)c3cc(S(=O)(=O)NC4(C)CC4)ccc3n(CCN3CCOCC3)c2=O)cn1 [Example 271]
IC50 (PARG in HeLa cell line): 161 nM
IC50 (Human Full Length PARG): 97 nM

Cn1cc(Cn2c(=O)c3cc(S(=O)(=O)NC4(C)CC4)ccc3n(CCN3CCCC3)c2=O)cn1 [Example 272]
IC50 (PARG in HeLa cell line; Homo sapiens): 467 nM
IC50 (Human Full Length PARG): 317 nM

Cn1cc(Cn2c(=O)c3cc(S(=O)(=O)NC4(C)CC4)ccc3n(CCC(N)=O)c2=O)cn1 [Example 273]
IC50 (PARG in HeLa cell line; Homo sapiens): 14500 nM
IC50 (Human Full Length PARG): 291 nM

COCCn1c(=O)n(Cc2cc(C)no2)c(=O)c2cc(S(=O)(=O)NC3(C)CC3)ccc21 [Example 274]
IC50 (PARG in HeLa cell line): 166 nM
IC50 (Human Full Length PARG): 237 nM

Cc1cc(Cn2c(=O)c3cc(S(=O)(=O)NC4(C)CC4)ccc3n(CC3CCCCN3C)c2=O)on1 (centres unmarked) [Example 275]
IC50 (PARG in HeLa cell line; Homo sapiens): 304 nM
IC50 (Human Full Length PARG): 333 nM

Cc1cc(Cn2c(=O)c3cc(S(=O)(=O)NC4(C)CC4)ccc3n(CCN3CCOCC3)c2=O)on1 [Example 276]
IC50 (PARG in HeLa cell line; Homo sapiens): 536 nM
IC50 (Human Full Length PARG): 255 nM

Cc1cc(Cn2c(=O)c3cc(S(=O)(=O)NC4(C)CC4)ccc3n(CCC(N)=O)c2=O)on1 [Example 277]
IC50 (PARG in HeLa cell line; Homo sapiens): 5760 nM
IC50 (Human Full Length PARG): 432 nM

Cn1cc(Cn2c(=O)c3cc(S(=O)(=O)NC4(C)CC4)ccc3n(CC3CCCC3)c2=O)cn1 [Example 279]
IC50 (PARG in HeLa cell line; Homo sapiens): 51 nM
IC50 (Human Full Length PARG): 168 nM

Cn1cc(Cn2c(=O)c3cc(S(=O)(=O)NC4(C)CC4)ccc3n(CC3CCCCC3)c2=O)cn1 [Example 280]
IC50 (PARG in HeLa cell line; Homo sapiens): 103 nM
IC50 (Human Full Length PARG): 177 nM

Cn1cc(Cn2c(=O)c3cc(S(=O)(=O)NC4(C)CC4)ccc3n(CC3CCC3)c2=O)cn1 [Example 281]
IC50 (PARG in HeLa cell line; Homo sapiens): 44 nM
IC50 (Human Full Length PARG): 76 nM

Cc1cc(Cn2c(=O)c3cc(S(=O)(=O)NC4(C)CC4)ccc3n(CC3CCC3)c2=O)on1 [Example 288]
IC50 (PARG in HeLa cell line): 79 nM
IC50 (Human Full Length PARG): 175 nM

Cc1cc(Cn2c(=O)c3cc(S(=O)(=O)NC4(C)CC4)ccc3n(CC3CCCC3)c2=O)on1 [Example 289]
IC50 (PARG in HeLa cell line): 129 nM
IC50 (Human Full Length PARG): 280 nM

Cc1cc(Cn2c(=O)c3cc(S(=O)(=O)NC4(C)CC4)ccc3n(CC3CCCCC3)c2=O)on1 [Example 290]
IC50 (PARG in HeLa cell line; Homo sapiens): 260 nM
IC50 (Human Full Length PARG): 497 nM

CC(C)n1c(=O)n(Cc2cnn(C)c2)c(=O)c2cc(S(=O)(=O)NC3(C)CC3)ccc21 [Example 292]
IC50 (PARG in HeLa cell line; Homo sapiens): 221 nM
IC50 (Human Full Length PARG): 341 nM

Cn1cc(Cn2c(=O)c3cc(S(=O)(=O)NC4(C)CC4)ccc3n(CC3(C)COC3)c2=O)cn1 [Example 294]
IC50 (PARG in HeLa cell line; Homo sapiens): 226 nM
IC50 (Human Full Length PARG): 47 nM

CC(C)Cn1c(=O)n(Cc2cnn(C)c2)c(=O)c2cc(S(=O)(=O)NC3(C)CC3)ccc21 [Example 295]
IC50 (PARG in HeLa cell line; Homo sapiens): 85 nM
IC50 (Human Full Length PARG): 70 nM

Cn1cc(Cn2c(=O)c3cc(S(=O)(=O)NC4(C)CC4)ccc3n(CCC3CC3)c2=O)cn1 [Example 296]
IC50 (PARG in HeLa cell line; Homo sapiens): 70 nM
IC50 (Human Full Length PARG): 73 nM

Cn1cc(Cn2c(=O)c3cc(S(=O)(=O)NC4(C)CC4)ccc3n(CC3COC3)c2=O)cn1 [Example 297]
IC50 (PARG in HeLa cell line; Homo sapiens): 272 nM
IC50 (Human Full Length PARG): 69 nM

CCn1c(=O)n(Cc2cc(C)no2)c(=O)c2cc(S(=O)(=O)NC3(C)CC3)ccc21 [Example 304]
IC50 (PARG in HeLa cell line; Homo sapiens): 113 nM
IC50 (Human Full Length PARG): 329 nM

Cc1cc(Cn2c(=O)c3cc(S(=O)(=O)NC4(C)CC4)ccc3n(CC3COC3)c2=O)on1 [Example 305]
IC50 (PARG in HeLa cell line): 323 nM
IC50 (Human Full Length PARG): 340 nM

Cc1cc(Cn2nc(NC3CCOCC3)c3ccc(S(=O)(=O)NC4(C)CC4)cc3c2=O)on1 [Example 306]
IC50 (PARG in HeLa cell line): 471 nM
IC50 (Human Full Length PARG): 367 nM

Cc1cc(Cn2nc(C(C)C)c3ccc(S(=O)(=O)NC4(C)CC4)cc3c2=O)on1 [Example 310]
IC50 (PARG in HeLa cell line; Homo sapiens): 455 nM
IC50 (Human Full Length PARG): 307 nM

Cc1cc(Cn2nc(C3CC3)c3ccc(S(=O)(=O)NC4(C)CC4)cc3c2=O)on1 [Example 313]
IC50 (PARG in HeLa cell line): 420 nM
IC50 (Human Full Length PARG): 349 nM

Cc1cc(Cn2nc(OC3COC3)c3ccc(S(=O)(=O)NC4(C)CC4)cc3c2=O)on1 [Example 317]
IC50 (PARG in HeLa cell line): 912 nM
IC50 (Human Full Length PARG): 487 nM

Cc1cc(Cn2nc(CC3CC3)c3ccc(S(=O)(=O)NC4(C)CC4)cc3c2=O)on1 [Example 318]
IC50 (PARG in HeLa cell line; Homo sapiens): 319 nM
IC50 (Human Full Length PARG): 352 nM

Cc1cc(Cn2c(=O)c3cc(S(=O)(=O)NC4(C)CC4)ccc3n(CC3CCOCC3)c2=O)on1 [Example 321]
IC50 (PARG in HeLa cell line; Homo sapiens): 195 nM
IC50 (Human Full Length PARG): 138 nM

CC(=O)Cn1c(=O)n(Cc2cc(C)no2)c(=O)c2cc(S(=O)(=O)NC3(C)CC3)ccc21 [Example 323]
IC50 (PARG in HeLa cell line; Homo sapiens): 736 nM
IC50 (Human Full Length PARG): 417 nM

Cc1cc(Cn2c(=O)c3cc(S(=O)(=O)NC4(C)CC4)ccc3n(CC(F)F)c2=O)on1 [Example 324]
IC50 (PARG in HeLa cell line; Homo sapiens): 272 nM
IC50 (Human Full Length PARG): 331 nM

Cc1cc(Cn2c(=O)c3cc(S(=O)(=O)NC4(C)CC4)ccc3n(CC(F)(F)F)c2=O)on1 [Example 325]
IC50 (PARG in HeLa cell line; Homo sapiens): 320 nM
IC50 (Human Full Length PARG): 431 nM

Cn1cc(Cn2c(=O)c3cc(S(=O)(=O)NC4(C)CC4)ccc3n(Cc3cnn(C)c3)c2=O)cn1 [Example 328]
IC50 (PARG in HeLa cell line; Homo sapiens): 116 nM
IC50 (Human Full Length PARG): 48 nM

Cn1cc(Cn2c(=O)c3cc(S(=O)(=O)NC4(C)CC4)ccc3n(CC3(C)CC3(F)F)c2=O)cn1 (centres unmarked) [Example 329]
IC50 (PARG in HeLa cell line; Homo sapiens): 129 nM
IC50 (Human Full Length PARG): 114 nM
